Values quoted from earlier work in patent publication US9062031B2, “Method of preparing polymorphic pure form A of bazedoxifene acetate” (SANDOZ AG, priority 2010, dated 2015).

How the values were obtained:
[1] = aqueous and organic solvent systems
[2] = solvent or solvent mixture, for example ethylacetate and ethanol

Solubility compared with form B [1]: higher solubility than form B
Conversion to form B upon contact with solvent [2]: can easily convert to form B
SMILES: Cc1c(-c2ccc(O)cc2)n(Cc2ccc(OCCN3CCCCCC3)cc2)c2ccc(O)cc12 [Bazedoxifene x acetate form A, 1-[[4-[2-(Hexahydro-1H-azepin-1-Dethoxy]phenyl]methyl]-2-(4-hydroxyphenyl)-3-methyl-1H-indol-5-ol monoacetate]
